One data set concerns the target T1, CYP3A4 (Homo sapiens, UniProt P08684).
T1 construct: pre-incubated with human liver microsomes and NADPH; from tissue; host or cells: human liver microsomes
Kind of data set: Cytochrome P450 inhibition assay (midazolam hydroxylation). Type of data set: in vitro ADME. The settings on record: human, human liver microsomes, probe midazolam (hydroxylation to 1′-hydroxymidazolam), 10 μM test compound, midazolam at approximately its Km. The procedure, abridged:
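Human liver microsomes; CYP3A4 activity as midazolam 1′-hydroxylation with substrate near Km, with or without 10 μM test compound, read as percent inhibition. For time-dependent inhibition, parallel samples were preincubated 30 min with NADPH before substrate, and percent inhibition compared with non-preincubated samples.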
Background: Liver microsomes are vesicles of endoplasmic reticulum, rich in cytochrome P450 enzymes.

A further data set deals with T2, OX1 (Homo sapiens, UniProt O43613).
T2 construct: expressed in transfected cells; host or cells: CHO (CHO-OX1, kept under selection antibiotic)
T2 sequence (O43613 1-425): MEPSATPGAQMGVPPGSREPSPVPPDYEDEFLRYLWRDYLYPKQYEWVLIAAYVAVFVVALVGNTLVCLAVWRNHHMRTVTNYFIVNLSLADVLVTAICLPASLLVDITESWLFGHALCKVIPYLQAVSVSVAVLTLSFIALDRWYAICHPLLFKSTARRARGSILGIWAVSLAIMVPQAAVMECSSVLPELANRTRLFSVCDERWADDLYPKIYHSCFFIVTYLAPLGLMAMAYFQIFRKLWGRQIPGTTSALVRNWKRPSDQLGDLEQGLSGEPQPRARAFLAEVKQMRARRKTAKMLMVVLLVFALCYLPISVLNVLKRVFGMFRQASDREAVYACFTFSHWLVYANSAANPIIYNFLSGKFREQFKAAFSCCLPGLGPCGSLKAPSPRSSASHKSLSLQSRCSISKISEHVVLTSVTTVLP
Kind of data set: Orexin receptor cell-based functional assay, [Ca2+]i by FLIPR, CHO-OX1 cells. The procedure, abridged: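 CHO cells expressing human OX1 or OX2 loaded with calcium dye plus 2.5 mM probenecid at 37° C (calcium4, 30 min, or calcium6, 2 h), then exposed to compounds (0.1 nM-10 μM) for 30 min. Intracellular Ca2+ measured on FLIPR; antagonist format.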

Where [1] appears, read: CHO-OX1 cells, [Ca2+]i by FLIPR, antagonist dose-range 0.1 nM-10 μM, EC90 of OXA, read-out: OX1.

Molecules are shown by their SMILES. Read-outs that look alike come from different tables or passages of the source.

T1 sequence (P08684 whole entry): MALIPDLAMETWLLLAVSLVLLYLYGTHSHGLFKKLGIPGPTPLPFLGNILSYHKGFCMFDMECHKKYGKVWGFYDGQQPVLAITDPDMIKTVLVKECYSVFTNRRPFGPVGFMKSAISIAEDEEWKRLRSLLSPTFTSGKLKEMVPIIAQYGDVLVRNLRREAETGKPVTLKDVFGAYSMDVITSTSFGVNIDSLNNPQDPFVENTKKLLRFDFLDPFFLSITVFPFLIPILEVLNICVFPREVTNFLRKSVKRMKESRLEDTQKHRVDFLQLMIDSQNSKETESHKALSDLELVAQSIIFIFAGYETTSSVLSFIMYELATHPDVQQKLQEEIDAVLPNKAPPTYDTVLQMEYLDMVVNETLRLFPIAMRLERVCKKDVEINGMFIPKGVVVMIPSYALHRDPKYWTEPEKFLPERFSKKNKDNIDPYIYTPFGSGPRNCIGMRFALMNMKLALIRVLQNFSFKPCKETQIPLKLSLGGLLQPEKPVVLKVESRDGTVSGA

Regarding `Cc1ccc(-c2cn[nH]c2)c(C(=O)N2CCC[C@@H](C)[C@H]2CNc2ccc(C(F)(F)F)cn2)c1` [Example A3, ((2S,3R)-3-Methyl-2-(((5-(trifluoromethyl)pyridin-2-yl)amino)methyl)piperidin-1-yl)(5-methyl-2-(1H-pyrazol-4-yl)phenyl)methanone], testing at 10 µM at CYP3A4 gave an inhibition of 98%. Besides, the IC50 at OX1 (setting [1]) is 6 nM.

Consider `Cc1ccc(-n2ncc(C)n2)c(C(=O)N2CCC[C@@H](C)[C@H]2CNc2nnc(C(F)(F)F)s2)c1` [Example A135, ((2S,3R)-3-Methyl-2-(((5-(trifluoromethyl)-1,3,4-thiadiazol-2-yl)amino)methyl)piperidin-1-yl)(5-methyl-2-(4-methyl-2H-1,2,3-triazol-2-yl)phenyl)methanone], for which the inhibition (usually the percentage by which the read-out fell short of the control) at 10 µM at CYP3A4 was determined as 80%. Further, at OX1 (setting [1]), the IC50 was 21 nM.

For `Cc1ccc(-n2nccn2)c(C(=O)N2CCC[C@@H](C)[C@H]2CNc2ccc(F)cn2)c1` [Example A47, ((2S,3R)-2-(((5-Fluoropyridin-2-yl)amino)methyl)-3-methylpiperidin-1-yl)(5-methyl-2-(2H-1,2,3-triazol-2-yl)phenyl)methanone], the inhibition at 10 µM on CYP3A4 is 56%. At OX1 (setting [1]), the IC50 came to 150 nM.

`Cc1nc(C(=O)N2CCC[C@H](C)[C@@H]2CNc2ccc(C(F)(F)F)cn2)c(-c2ccc(F)cc2)s1` [Example A43, (5-(4-Fluorophenyl)-2-methylthiazol-4-yl)((2R,3S)-3-methyl-2-(((5-(trifluoromethyl)pyridin-2-yl)amino)methyl)piperidin-1-yl)methanone] registered an inhibition at 10 µM against CYP3A4 of 55%. Moreover, the IC50 at OX1 (setting [1]) came to 670 nM; on OX1 (Table 6, racemate vs enantiomers, read-out: OX1 IC50), 670 nM.

For `Cc1ccc(-n2nccn2)c(C(=O)N2CCC[C@@H](C)[C@H]2CNc2nc3cc(Cl)ccc3o2)n1` [Example A195, ((2S,3R)-2-(((5-Chlorobenzo[d]oxazol-2-yl)amino)methyl)-3-methylpiperidin-1-yl)(6-methyl-3-(2H-1,2,3-triazol-2-yl)pyridin-2-yl)methanone], the inhibition at 10 µM on CYP3A4 is 57%. Moreover, at OX1 (setting [1]), the IC50 is 4 nM.

Turning to `Cc1ccc(-n2nccn2)c(C(=O)N2CCC[C@@H](C)[C@H]2CNc2ncc(C(F)(F)F)cn2)c1F` [Example A319, (2-Fluoro-3-methyl-6-(2H-1,2,3-triazol-2-yl)phenyl)((2S,3R)-3-methyl-2-(((5-(trifluoromethyl)pyrimidin-2-yl)amino)methyl)piperidin-1-yl)methanone], the inhibition at 10 µM against CYP3A4 came to 53%. On OX1 (setting [1]), the IC50 is 6 nM.

On to `C[C@@H]1CCCN(C(=O)c2c(F)cccc2-c2ncccn2)[C@@H]1CNc1ncc(Cl)cn1` [Example A239, ((2S,3R)-2-(((5-Chloropyrimidin-2-yl)amino)methyl)-3-methylpiperidin-1-yl)(2-fluoro-6-(pyrimidin-2-yl)phenyl)methanone], for which the inhibition at 10 µM on CYP3A4 was determined as 50%. For the same compound, at OX1 (setting [1]), the IC50 turned out to be 83 nM.

In turn, `Cc1ccc(-n2nccn2)c(C(=O)N2CCC[C@@H](C)[C@H]2CNc2ccc(Cl)cn2)c1` [Example A78, ((2S,3R)-2-(((5-Chloropyridin-2-yl)amino)methyl)-3-methylpiperidin-1-yl)(5-methyl-2-(2H-1,2,3-triazol-2-yl)phenyl)methanone] registered an inhibition at 10 µM against CYP3A4 of 84%. Also, on OX1 (setting [1]), the IC50 was found to be 7 nM.

Compound `Cc1ccc(-c2cnn(C)c2)c(C(=O)N2CCC[C@@H](C)[C@H]2CNc2nc3cc(Cl)ccc3o2)c1` [Example A12, ((2S,3R)-2-(((5-chlorobenzo[d]oxazol-2-yl)amino)methyl)-3-methylpiperidin-1-yl)(5-methyl-2-(1-methyl-1H-pyrazol-4-yl)phenyl)methanone] yielded an inhibition at 10 µM at CYP3A4 of 98%. Further, the IC50 on OX1 (setting [1]) was 20 nM.

`Cc1ccc(-c2ncccn2)c(C(=O)N2CCC[C@@H](C)[C@H]2CNc2nc3cc(F)ccc3o2)c1` [Example A206, ((2S,3R)-2-(((5-Fluorobenzo[d]oxazol-2-yl)amino)methyl)-3-methylpiperidin-1-yl)(5-methyl-2-(pyrimidin-2-yl)phenyl)methanone] yielded an inhibition at 10 µM against CYP3A4 of 58%. Further, the IC50 on OX1 (setting [1]) was 6 nM.

With `C[C@@H]1CCCN(C(=O)c2ccccc2-n2nccn2)[C@@H]1CNc1nc2ccccc2o1` [Example A218, (2-(2H-1,2,3-Triazol-2-yl)phenyl)((2S,3R)-2-((benzo[d]oxazol-2-ylamino)methyl)-3-methylpiperidin-1-yl)methanone], the inhibition at 10 µM at CYP3A4 is 75%. The IC50 at OX1 (setting [1]) came to 130 nM.

In the case of `Cc1ccc(-c2cnn(C)c2)c(C(=O)N2CCC[C@@H](C)[C@H]2CNc2nc3ccc(Cl)cc3o2)c1` [Example A10, ((2S,3R)-2-(((6-Chlorobenzo[d]oxazol-2-yl)amino)methyl)-3-methylpiperidin-1-yl)(5-methyl-2-(1-methyl-1H-pyrazol-4-yl)phenyl)methanone], 10 µM produced 98% inhibition against CYP3A4. Also, at OX1 (setting [1]), the IC50 came to 81 nM.

In turn, `Cc1ccc(-c2cccnn2)c(C(=O)N2CCC[C@@H](C)[C@H]2CNc2ccc(C(F)(F)F)cn2)c1` [Example A197, ((2S,3R)-3-methyl-2-(((5-(trifluoromethyl)pyridin-2-yl)amino)methyl)piperidin-1-yl)(5-methyl-2-(pyridazin-3-yl)phenyl)methanone] showed an inhibition at 10 µM at CYP3A4 of 83%. The IC50 on OX1 (setting [1]) stood at 7 nM.

In turn, `C[C@@H]1CCCN(C(=O)c2cc(F)ccc2-c2ncccn2)[C@@H]1CNc1ccc(Cl)cn1` [Example A229, ((2S,3R)-2-(((5-Chloropyridin-2-yl)amino)methyl)-3-methylpiperidin-1-yl)(5-fluoro-2-(pyrimidin-2-yl)phenyl)methanone] registered an inhibition at 10 µM at CYP3A4 of 72%. Moreover, at OX1 (setting [1]), the IC50 was determined as 4 nM.

With `Cc1ccc(-n2nccn2)c(C(=O)N2CCC[C@@H](C)[C@H]2CNc2ccc(C(F)(F)F)nn2)c1` [Example A119, ((2S,3R)-3-Methyl-2-(((6-(trifluoromethyl)pyridazin-3-yl)amino)methyl)piperidin-1-yl)(5-methyl-2-(2H-1,2,3-triazol-2-yl)phenyl)methanone], on CYP3A4, 10 µM produced 59% inhibition. Moreover, the IC50 on OX1 (setting [1]) turned out to be 19 nM.

`C[C@@H]1CCCN(C(=O)c2cc(Cl)ccc2-n2nccn2)[C@@H]1CNc1ccc(Cl)cn1` [Example A161] gave an inhibition at 10 µM on CYP3A4 of 68%. The IC50 at OX1 (setting [1]) worked out at 13 nM.

On CYP3A4, `C[C@@H]1CCCN(C(=O)c2cc(F)ccc2-n2nccn2)[C@@H]1CNc1ccc(Cl)cn1` [Example A209, ((2S,3R)-2-(((5-Chloropyridin-2-yl)amino)methyl)-3-methylpiperidin-1-yl)(5-fluoro-2-(2H-1,2,3-triazol-2-yl)phenyl)methanone] showed an inhibition at 10 µM of 69%. In addition, the IC50 on OX1 (setting [1]) was 45 nM.

For the compound `Cc1ccc(NC[C@@H]2[C@H](C)CCCN2C(=O)c2cc(C)ccc2-c2ncccn2)nc1` [Example A143, ((2S,3R)-3-Methyl-2-(((5-methylpyridin-2-yl)amino)methyl)piperidin-1-yl)(5-methyl-2-(pyrimidin-2-yl)phenyl)methanone], 10 µM produced 75% inhibition against CYP3A4. In addition, the IC50 at OX1 (setting [1]) was 26 nM.

At CYP3A4, `Cc1ccc(-c2ncccn2)c(C(=O)N2CCC[C@@H](C)[C@H]2CNc2ncc(C(F)(F)F)cn2)n1` [Example A184, ((2S,3R)-3-Methyl-2-(((5-(trifluoromethyl)pyrimidin-2-yl)amino)methyl)piperidin-1-yl)(6-methyl-3-(pyrimidin-2-yl)pyridin-2-yl)methanone] showed an inhibition at 10 µM of 34%. Further, the IC50 at OX1 (setting [1]) came to 5 nM.

On CYP3A4, `Cc1ccc(-n2nccn2)c(C(=O)N2CCC[C@@H](C)[C@H]2CNc2ncc(C(F)(F)F)cc2F)c1` [Example A82, ((2S,3R)-2-(((3-Fluoro-5-(trifluoromethyl)pyridin-2-yl)amino)methyl)-3-methylpiperidin-1-yl)(5-methyl-2-(2H-1,2,3-triazol-2-yl)phenyl)methanone] came in with an inhibition at 10 µM of 68%. Besides, the IC50 on OX1 (setting [1]) came out at 8 nM.

`C[C@@H]1CCCN(C(=O)c2cc(F)ccc2-c2ncccn2)[C@@H]1CNc1ncc(C(F)(F)F)cn1` [Example A227, (5-Fluoro-2-(pyrimidin-2-yl)phenyl)((2S,3R)-3-methyl-2-(((5-(trifluoromethyl)pyrimidin-2-yl)amino)methyl)piperidin-1-yl)methanone] yielded an inhibition at 10 µM against CYP3A4 of 59%. Also, at OX1 (setting [1]), the IC50 amounted to 2 nM.

In the case of `C[C@@H]1CCCN(C(=O)c2cc(C#N)ccc2-c2ncccn2)[C@@H]1CNc1ncc(C(F)(F)F)cn1` [Example A323, 3-((2S,3R)-3-Methyl-2-(((5-(trifluoromethyl)pyrimidin-2-yl)amino)methyl)piperidine-1-carbonyl)-4-(pyrimidin-2-yl)benzonitrile], testing at 10 µM against CYP3A4 gave an inhibition of 39%. For the same compound, the IC50 at OX1 (setting [1]) is 10 nM.
